The numbers were not newly measured in US20190321395A1, “TREATMENT OF PSORIASIS, SEBORRHEIC DERMATITIS, AND ECZEMA OF THE HEAD AND NECK” (Oread Therapeutics, priority 2018, published 2019), which cites them from elsewhere.

For the molecule `CC(=O)N1CCN(c2ccc(OCC3COC(Cn4ccnc4)(c4ccc(Cl)cc4Cl)O3)cc2)CC1` (centres unmarked) [Ketoconazole], the “Water Solubility” value was 0.9 µg/mL.
In the case of `[O-][n+]1ccccc1[S-].[O-][n+]1ccccc1[S-].[Zn+2]` [Pyrithione Zinc], the “Water Solubility” value is 86.00 µg/mL.
